In patent publication US9315502B2, “Imidazopyridine derivatives” (Hoffmann-La Roche Inc., priority 2012, dated 2016):

Experiments:
[1] = tested on: human embryonic stem cell derived neural stem cells (NSCs); test: Neural Stem Cell Proliferation Assay (neurogenesis assay, ATP levels by CellTiterGlo); assay type: cell-based; settings: 96 h, compound concentration at which 150% activity of control (100%) is reached, NSC proliferation, 4 days incubation
Description: Neural Stem Cell Proliferation Assay
Neurogenic properties of small molecules are determined based on the proliferation of human embryonic stem cell derived neural stem cells (NSCs) which were derived via a dual smad inhibition as previously described (Chambers, S. M., et al., Highly efficient neural conversion of human ES and iPS cells by dual inhibition of SMAD signaling, Nature biotechnology, 2009. 27(3): p. 275-80.)
Compounds respond is measured by the increase in cells based on ATP levels
(Promega:CellTiterGlo®) after an incubation period of 4 days.
NSCs are thawed and expanded over 3 passages. On the 14th day, NSCs are seeded in Polyornithin/Laminin coated 384 well plates at a cell density of 21′000 cells/cm^2 in a media volume of 38 μl.
4 hours after cell seeding, compound solutions are added at a volume of 2 μl. Stock solutions of the compounds (water, 5% DMSO) are diluted to obtain a dose response (11 points, dilution factor is 2), ranging from 8 μM to 8 nM. Controls are run to consistently determine the neurogenic properties of the cells:
Negative (neutral) control is cell culture Media (final DMSO concentration: 0.25%). Positive controls are: • 1. cell culture Media+100 ng/ml FGF2 (final DMSO concentration: 0.1%) • 2. cell culture Media+20 ng/ml EGF (final DMSO concentration: 0.1%) • 3. cell culture Media+100 ng/ml Wnt3a (final DMSO concentration: 0.1%)
After 4 days incubation at 37° C., 5% CO2, the amount of ATP per well is quantified. The ATP concentration is proportional to the cell number. ATP is quantified by using the Promega CellTiterGlo® kit. The CellTiterGlo® reagents contain a cell lysis buffer, a thermo stable luciferase (UltraGlo™ recombinant luciferase), magnesium and luciferin. Luciferin reacts with ATP producing oxyluciferin, AMP and light. The luminescence signal is proportional to the ATP content.
The value of negative (neutral) control is determined for each assay plate by taking the average of 16 negative control wells. The neurogenic compound response is calculated for each compound as (compound/Negative Control)* 100.
The values of EC150 from the dose response curve are determined for each test compound. The EC150 is the compound concentration at which 150% activity of control (100%) is reached.

| Compound | melting point [°C] | EC (150% of control) [1] [µM] |
| --- | --- | --- |
| Fc1ccc(-c2cnc3ccc(-c4cncn4-c4ccc(F)cc4)cn23)cc1 [Example 16, 3-(4-Fluoro-phenyl)-6-[3-(4-fluoro-phenyl)-3H-imidazol-4-yl]-imidazol[1,2-a]pyridine] | 206 | 0.053 |
| Fc1ccc(-c2cnc3ccc(-c4ccnn4-c4ccc(Cl)cc4)cn23)cc1 [Example 3, 6-[2-(4-Chloro-phenyl)-2H-pyrazol-3-yl]-3-(4-fluoro-phenyl)-imidazo[1,2-a]pyridine] | 147 | 0.096 |
| Fc1cc(Cl)ccc1-c1cnc2ccc(-c3ccnn3-c3ccc(Cl)cc3)cn12 [Example 11, 3-(4-Chloro-2-fluoro-phenyl)-6-[2-(4-chloro-phenyl)-2H-pyrazol-3-yl]-imidazo[1,2-a]pyridine] | 148 | 0.089 |
| Fc1ccc(-c2cnc3ccc(-c4ccnn4-c4ccc(F)cc4)cn23)cc1 [Example 1, 3-(4-Fluoro-phenyl)-6-[2-(4-fluoro-phenyl)-2H-pyrazol-3-yl]-imidazo[1,2-a]pyridine] | 172 | 0.019 |
| Fc1ccc(-n2nccc2-c2ccc3ncc(-c4ccc(C(F)(F)F)cc4)n3c2)cc1 [Example 18, 6-[2-(4-Fluoro-phenyl)-2H-pyrazol-3-yl]-3-(4-trifluoromethyl-phenyl)-imidazo[1,2-a]pyridine] | 172 | 0.18 |
| Fc1ccc(-n2nccc2-c2ccc3ncc(-c4ccncc4)n3c2)cc1 [Example 6, 6-[2-(4-Fluoro-phenyl)-2H-pyrazol-3-yl]-3-pyridin-4-yl-imidazo [1,2-a]pyridine] | 201 | 0.026 |
| N#Cc1ccc(-c2cnc3ccc(-c4ccnn4-c4ccc(C(F)(F)F)cc4)cn23)cc1 [Example 24, 4-{6-[2-(4-Trifluoromethyl-phenyl)-2H-pyrazol-3-yl]-imidazo [1,2-a]pyridin-3-yl}-benzonitrile] | 201 | 2.6 |
| Fc1ccc(-c2cnc3ccc(-c4ccnn4-c4ccc(C(F)(F)F)cc4)cn23)cc1 [Example 23, 3-(4-Fluoro-phenyl)-6-[2-(4-trifluoromethyl-phenyl)-2H-pyrazol-3-yl]-imidazo[1,2-a]pyridine] | 147 | 0.79 |
| FC(F)(F)c1ccc(-c2cnc3ccc(-c4ccnn4-c4ccc(Cl)cc4)cn23)cc1 [Example 17, 6-[2-(4-Chloro-phenyl)-2H-pyrazol-3-yl]-3-(4-trifluoromethyl-phenyl)-imidazo[1,2-a]pyridine] | 167 | 0.38 |
| CS(=O)(=O)c1ccc(-c2cnc3ccc(-c4ccnn4-c4ccc(Cl)cc4)cn23)cc1 [Example 21, 6-[2-(4-Chloro-phenyl)-2H-pyrazol-3-yl]-3-(4-methanesulfonyl-phenyl)-imidazo[1,2-a]pyridine] | 259 | 0.25 |
| Clc1ccc(-c2cnc3ccc(-c4ccnn4-c4ccc(Cl)cc4)cn23)cc1 [Example 2, 3-(4-Chloro-phenyl)-6-[2-(4-chloro-phenyl)-2H-pyrazol-3-yl]-imidazo[1,2-a]pyridine] | 172.5 | 0.1 |
| N#Cc1ccc(-c2cnc3ccc(-c4ccnn4-c4ccc(F)cc4)cn23)cc1 [Example 19, 4-{6-[2-(4-Fluoro-phenyl)-2H-pyrazol-3-yl]-imidazo [1,2-a]pyridin-3-yl}-benzonitrile] | 215 | 0.03 |
| Fc1ccc(-n2nccc2-c2ccc3ncc(-c4ccc(Cl)cc4F)n3c2)cc1 [Example 9, 3-(4-Chloro-2-fluoro-phenyl)-6-[2-(4-fluoro-phenyl)-2H-pyrazol-3-yl]-imidazo[1,2-a]pyridine] | 187 | 0.055 |
| c1ccc(-c2cnc3ccc(-c4ccnn4-c4ccccc4)cn23)cc1 [Example 8, 3-Phenyl-6-(2-phenyl-2H-pyrazol-3-yl)-imidazo[1,2-a]pyridine] | 139 | 0.019 |
| Fc1ccc(-c2cnc3ccc(-c4ccnn4-c4ccc(Cl)cc4)cn23)c(F)c1 [Example 15, 6-[2-(4-Chloro-phenyl)-2H-pyrazol-3-yl]-3-(2,4-difluoro-phenyl)-imidazo[1,2-a]pyridine] | 152 | 0.029 |
| Fc1ccc(-n2nccc2-c2ccc3ncc(-c4ccc(F)cc4F)n3c2)cc1 [Example 14, 3-(2,4-Difluoro-phenyl)-6-[2-(4-fluoro-phenyl)-2H-pyrazol-3-yl]-imidazo[1,2-a]pyridine] | 168 | 0.053 |
| COc1ccc(-c2cnc3ccc(-c4ccnn4-c4ccc(F)cc4)cn23)cc1 [Example 13, 6-[2-(4-Fluoro-phenyl)-2H-pyrazol-3-yl]-3-(4-methoxy-phenyl)-imidazo [1,2-a]pyridine] | 162 | 0.024 |
| Clc1ccc(-n2nccc2-c2ccc3ncc(-c4ccncc4)n3c2)cc1 [Example 7, 6-[2-(4-Chloro-phenyl)-2H-pyrazol-3-yl]-3-pyridin-4-yl-imidazo[1,2-a]pyridine] | 186 | 0.022 |
| CS(=O)(=O)c1ccc(-c2cnc3ccc(-c4ccnn4-c4ccc(F)cc4)cn23)cc1 [Example 22, 6-[2-(4-Fluoro-phenyl)-2H-pyrazol-3-yl]-3-(4-methanesulfonyl-phenyl)-imidazo[1,2-a]pyridine] | 226 | 0.24 |
| Cc1ccc(-n2nccc2-c2ccc3ncc(-c4ccccc4)n3c2)cc1 [Example 10, 3-Phenyl-6-(2-p-tolyl-2H-pyrazol-3-yl)-imidazo[1,2-a]pyridine] | 107 | 0.009 |
| Cc1ccc(-n2nccc2-c2ccc3ncc(-c4ccc(F)cc4)n3c2)cc1 [Example 5, 3-(4-Fluoro-phenyl)-6-(2-p-tolyl-2H-pyrazol-3-yl)-imidazo[1,2-a]pyridine] | 141 | 0.008 |
| N#Cc1ccc(-c2cnc3ccc(-c4ccnn4-c4ccc(Cl)cc4)cn23)cc1 [Example 20, 4-{6-[2-(4-Chloro-phenyl)-2H-pyrazol-3-yl]-imidazo[1,2-a]pyridin-3-yl}-benzonitrile] | 208 | 0.04 |
| COc1ccc(-c2cnc3ccc(-c4ccnn4-c4ccc(Cl)cc4)cn23)cc1 [Example 12, 6-[2-(4-Chloro-phenyl)-2H-pyrazol-3-yl]-3-(4-methoxy-phenyl)-imidazo [1,2-a]pyridine] | 142 | 0.045 |
| Fc1ccc(-n2nccc2-c2ccc3ncc(-c4ccc(Cl)cc4)n3c2)cc1 [Example 4, 3-(4-Chloro-phenyl)-6-[2-(4-fluoro-phenyl)-2H-pyrazol-3-yl]-imidazo [1,2-a]pyridine] | 171 | 0.092 |
